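These data come from cells grown in 96-well plates and exposed to compound for 48 hours at five concentrations. GI50 marks 50% less growth.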 The source made the active and inactive calls. No stated cut-off is given here; in the data, active = GI50 up to about 1.1 µM and inactive = higher. Bounds are passed on as bounds.

The text below walks through data of ChEMBL document CHEMBL1201862, “PubChem BioAssay data set” (2004).

Test systems include MCF7; UACC-62; HOP-62; OVCAR-4; ACHN; SN12C; KM12; OVCAR-5; SF-295; SW-620; U-251; A498; TK-10; RPMI-8226; NCI-H23; CCRF-CEM; NCI-H226; OVCAR-8; MDA-N; HCC 2998.
Holding throughout (experiment): NCI anticancer screen, dose series, 48 h

For `CCN(CC)CCNc1ccc([N+](=O)[O-])c2nc3ccc(OC)cc3c(N)c12`, the GI50 in the assay on MCF7 is 0.43 µM (active); in the assay with UACC-62, 1.7 µM (inactive); in the assay on HOP-62, 1.7 µM (inactive); with OVCAR-4 it was 1.22 µM (inactive); in the assay with ACHN, 1.43 µM (inactive); with SN12C, 1.44 µM (inactive). For the same molecule, the GI50 with KM12 was 1.12 µM (inactive); in the assay with OVCAR-5 it was 1.7 µM (inactive); in the assay with SF-295 it was 1.37 µM (inactive); in the assay on SW-620 it was 0.191 µM (active); with U-251 it was 1.62 µM (inactive); in the assay on A498 it was 1.5 µM (inactive). For the same molecule, the GI50 in the assay with TK-10 is 1.57 µM (inactive); with RPMI-8226, 0.243 µM (active); with NCI-H23 it was 1.64 µM (inactive); in the assay on CCRF-CEM, 0.248 µM (active); with NCI-H226 it was 2.32 µM (inactive); in the assay with OVCAR-8, 1.47 µM (inactive). Besides, the GI50 with MDA-N is 1.67 µM (inactive).
Take `O=C(Nc1cccc(C(F)(F)F)c1)O/N=C(/Cl)CCl`: the GI50 in the assay on MCF7 was 21.6 µM (inactive); with HOP-62 it was > 100 µM (inactive); with OVCAR-4 it was 63.2 µM (inactive); with ACHN, > 100 µM (inactive); in the assay on SN12C, 56 µM (inactive); with KM12, > 100 µM (inactive). The GI50 is 21.8 µM (inactive) in the assay on OVCAR-5; 49.5 µM (inactive) with SF-295; 38.5 µM (inactive) with SW-620; > 100 µM (inactive) with HCC 2998; 39.5 µM (inactive) with U-251; > 100 µM (inactive) with A498. Besides, the GI50 with TK-10 was > 100 µM (inactive); in the assay with RPMI-8226, 27 µM (inactive); in the assay with NCI-H23 it was 47.3 µM (inactive); with CCRF-CEM, 30.2 µM (inactive); in the assay on OVCAR-8, > 100 µM (inactive); in the assay with MDA-N, 71.8 µM (inactive).
Take `COc1ccccc1N1C(=O)/C(=C\c2cccc(Oc3ccccc3)c2)S(=O)(=O)C1c1ccccc1` (stereo not drawn): the GI50 in the assay on MCF7 was 27.4 µM (inactive); in the assay on UACC-62, 17.8 µM (inactive); with HOP-62, > 100 µM (inactive); in the assay with OVCAR-4, 9.79 µM (inactive); in the assay on ACHN, > 100 µM (inactive); in the assay on SN12C it was > 100 µM (inactive). Moreover, the GI50 is 28.2 µM (inactive) in the assay on KM12; 89.9 µM (inactive) in the assay on OVCAR-5; 81.8 µM (inactive) in the assay with SF-295; 49.3 µM (inactive) with SW-620; > 100 µM (inactive) in the assay on HCC 2998; 53.6 µM (inactive) in the assay on U-251. The GI50 was 49.8 µM (inactive) with A498; 58.7 µM (inactive) in the assay on TK-10; 19 µM (inactive) in the assay with NCI-H23; 33.9 µM (inactive) in the assay on CCRF-CEM; > 100 µM (inactive) in the assay on NCI-H226; 36.4 µM (inactive) in the assay with MDA-N.
With `C=C[C@H]1CN2CC[C@H]1C[C@@H]2[C@@H](O)c1ccnc2ccccc12` [CINCHONINE], the GI50 was > 100 µM (inactive) in the assay with MCF7; > 100 µM (inactive) in the assay on UACC-62; 89.9 µM (inactive) in the assay on HOP-62; 58.6 µM (inactive) with OVCAR-4; > 100 µM (inactive) with ACHN; > 100 µM (inactive) with SN12C. Further, the GI50 in the assay on KM12 is > 100 µM (inactive); in the assay with OVCAR-5, > 100 µM (inactive); in the assay with SF-295 it was > 100 µM (inactive); in the assay on SW-620, > 100 µM (inactive); with U-251, > 100 µM (inactive); with A498 it was 63 µM (inactive). In addition, the GI50 in the assay with TK-10 was > 100 µM (inactive); with RPMI-8226, 22.9 µM (inactive); in the assay on NCI-H23, > 100 µM (inactive); in the assay on NCI-H226, > 100 µM (inactive); with OVCAR-8, > 100 µM (inactive); with MDA-N it was > 100 µM (inactive).
Turning to `CN(C)c1ccc(/C=C2\N=C(NNc3ccccc3)NC2=O)cc1`, the GI50 in the assay with MCF7 is 17.9 µM (inactive); in the assay with UACC-62, 28.8 µM (inactive); in the assay with HOP-62, 30.3 µM (inactive); in the assay on OVCAR-4, 24.2 µM (inactive); in the assay on ACHN, 20.2 µM (inactive); in the assay with SN12C, 17.7 µM (inactive). Moreover, the GI50 with KM12 is 13.2 µM (inactive); in the assay on OVCAR-5, 31.8 µM (inactive); in the assay on SF-295, 21.5 µM (inactive); in the assay on SW-620, 26.8 µM (inactive); with HCC 2998 it was 14 µM (inactive); in the assay on U-251 it was 14.3 µM (inactive). In addition, the GI50 in the assay with A498 is 17.1 µM (inactive); in the assay on TK-10, 20.8 µM (inactive); with RPMI-8226, 16 µM (inactive); with NCI-H23 it was 20 µM (inactive); in the assay on CCRF-CEM, < 0.01 µM (active); with OVCAR-8 it was 30.9 µM (inactive). Also, the GI50 with MDA-N was 27.7 µM (inactive).
As to `Cc1c(O)c(OC2OC(CO)C(O)C(O)C2O)cc2c1C=C[C@@H]1[C@@]2(C)C(=O)C[C@]2(C)[C@@H]([C@@](C)(O)C(=O)CCC(C)(C)O)[C@H](O)C[C@@]12C` (stereo partly drawn), the GI50 is 33.6 µM (inactive) with MCF7; 18.1 µM (inactive) in the assay on UACC-62; 31.7 µM (inactive) in the assay with HOP-62; 25.4 µM (inactive) with OVCAR-4; 19.6 µM (inactive) in the assay on ACHN; 19.8 µM (inactive) in the assay with SN12C. Moreover, the GI50 was 25.4 µM (inactive) in the assay with KM12; 25.6 µM (inactive) in the assay with OVCAR-5; 17.1 µM (inactive) with SF-295; 29 µM (inactive) in the assay with SW-620; 20.5 µM (inactive) with HCC 2998; 20.7 µM (inactive) with U-251. For the same molecule, the GI50 in the assay on A498 is 19.5 µM (inactive); with TK-10 it was 18.1 µM (inactive); in the assay on NCI-H23, 17.1 µM (inactive); in the assay on CCRF-CEM it was 37.3 µM (inactive); with NCI-H226, 23.3 µM (inactive); with OVCAR-8 it was 33.3 µM (inactive). In addition, the GI50 in the assay with MDA-N was 27.9 µM (inactive).
With `CC1=Nc2c(C#N)ncn2N=C(C)C1`, the GI50 with MCF7, with UACC-62, in the assay on HOP-62, in the assay on OVCAR-4, with ACHN and with SN12C was > 100 µM (inactive) throughout. For the same molecule, the GI50 in the assay with KM12, in the assay with OVCAR-5, in the assay with SF-295, with SW-620, in the assay with U-251 and in the assay on A498 was > 100 µM (inactive) in each case. Besides, the GI50 with TK-10 is > 100 µM (inactive); with RPMI-8226 it was > 100 µM (inactive); with NCI-H23, > 100 µM (inactive); in the assay with CCRF-CEM, 70.5 µM (inactive); with NCI-H226, > 100 µM (inactive); with MDA-N it was > 100 µM (inactive).
Take `COc1cc(CC2c3cc(OC)c(OC)cc3CCN2C)c(Oc2cc3c(cc2OC)-c2c(O)c(OC)cc4c2C(C3)N(C)CC4)cc1OC` (stereo not drawn): the GI50 is 12.5 µM (inactive) in the assay on MCF7; 20.5 µM (inactive) with UACC-62; 23.7 µM (inactive) in the assay with HOP-62; 28.3 µM (inactive) in the assay on OVCAR-4; 22.9 µM (inactive) in the assay with ACHN; 22.1 µM (inactive) in the assay with SN12C. In addition, the GI50 with KM12 was 15 µM (inactive); in the assay with OVCAR-5 it was 45.8 µM (inactive); in the assay with SF-295, 17.9 µM (inactive); with SW-620, 39.5 µM (inactive); in the assay with HCC 2998, 13.1 µM (inactive); in the assay with U-251 it was 24.5 µM (inactive). The GI50 in the assay on A498 was 22 µM (inactive); in the assay with TK-10, 22 µM (inactive); with NCI-H23, 22.2 µM (inactive); in the assay on CCRF-CEM, 18.8 µM (inactive); in the assay on NCI-H226, 26.7 µM (inactive); in the assay on OVCAR-8, 20.8 µM (inactive). Moreover, the GI50 in the assay on MDA-N was 16.7 µM (inactive).
